What was measured:
Type in all cases: in vivo
[1] = test system: barnyardgrass (Echinochloa crus-galli); test: Test A preemergence soil spray, visual injury rating 0-100; conditions: 10 days, 0 = no effect, 100 = complete control
Procedure, shortened: (§1)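 Plants were grown in a loam soil-sand blend and treated with test chemical in a non-phytotoxic solvent mixture containing surfactant, either sprayed on soil preemergence or applied postemergence to 2-10 cm plants. After 10 days in a greenhouse, injury was scored visually against untreated controls, 0 meaning no effect and 100 complete control.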

[2] = test system: blackgrass (Alopecurus myosuroides); test: as above; conditions: 10 days, 0 = no effect, 100 = complete control
Procedure, shortened: as §1

corn (Zea mays) [3] = test: as above; conditions: 10 days, 0 = no effect, 100 = complete control
Procedure, shortened: as §1

[4] = test system: green foxtail (Setaria viridis); test: as above; conditions: 10 days, 0 = no effect, 100 = complete control
Procedure, shortened: as §1

kochia (Bassia scoparia) [5] = test: as above; conditions: 10 days, 0 = no effect, 100 = complete control
Procedure, shortened: as §1

[6] = test system: oat, wild (wild oat, Avena fatua); test: as above; conditions: 10 days, 0 = no effect, 100 = complete control
Procedure, shortened: as §1

[7] = test system: palmer (palmer amaranth, palmer pigweed, Amaranthus palmeri); test: as above; conditions: 10 days, 0 = no effect, 100 = complete control
Procedure, shortened: as §1

[8] = test system: ragweed (common ragweed, Ambrosia artemisiifolia); test: as above; conditions: 10 days, 0 = no effect, 100 = complete control
Procedure, shortened: as §1

[9] = test system: ryegrass, Italian (italian ryegrass, Lolium multiflorum); test: as above; conditions: 10 days, 0 = no effect, 100 = complete control
Procedure, shortened: as §1

soybean (Glycine max) [10] = test: as above; conditions: 10 days, 0 = no effect, 100 = complete control
Procedure, shortened: as §1

[11] = test system: wheat (Triticum aestivum); test: as above; conditions: 10 days, 0 = no effect, 100 = complete control
Procedure, shortened: as §1

[12] = test system: barnyardgrass (Echinochloa crus-galli); test: Test A postemergence application, visual injury rating 0-100; conditions: Postemergence, 10 days, 0 is no effect, 100 is complete control
Procedure, shortened: as §1

[13] = test system: blackgrass (Alopecurus myosuroides); test: as above; conditions: Postemergence, 10 days, 0 is no effect, 100 is complete control
Procedure, shortened: as §1

corn (Zea mays) [14] = test: as above; conditions: Postemergence, 10 days, 0 is no effect, 100 is complete control
Procedure, shortened: as §1

[15] = test system: galium (catchweed bedstraw, Galium aparine); test: as above; conditions: Postemergence, 10 days, 0 is no effect, 100 is complete control
Procedure, shortened: as §1

[16] = test system: green foxtail (Setaria viridis); test: as above; conditions: Postemergence, 10 days, 0 is no effect, 100 is complete control
Procedure, shortened: as §1

[17] = test system: horseweed (Erigeron canadensis); test: as above; conditions: Postemergence, 10 days, 0 is no effect, 100 is complete control
Procedure, shortened: as §1

kochia (Bassia scoparia) [18] = test: as above; conditions: Postemergence, 10 days, 0 is no effect, 100 is complete control
Procedure, shortened: as §1

[19] = test system: oat, wild (wild oat, Avena fatua); test: as above; conditions: Postemergence, 10 days, 0 is no effect, 100 is complete control
Procedure, shortened: as §1

[20] = test system: palmer (palmer amaranth, palmer pigweed, Amaranthus palmeri); test: as above; conditions: Postemergence, 10 days, 0 is no effect, 100 is complete control
Procedure, shortened: as §1

[21] = test system: ragweed (common ragweed, Ambrosia artemisiifolia); test: as above; conditions: Postemergence, 10 days, 0 is no effect, 100 is complete control
Procedure, shortened: as §1

[22] = test system: ryegrass, Italian (italian ryegrass, Lolium multiflorum); test: as above; conditions: Postemergence, 10 days, 0 is no effect, 100 is complete control
Procedure, shortened: as §1

soybean (Glycine max) [23] = test: as above; conditions: Postemergence, 10 days, 0 is no effect, 100 is complete control
Procedure, shortened: as §1

[24] = test system: wheat (Triticum aestivum); test: as above; conditions: Postemergence, 10 days, 0 is no effect, 100 is complete control
Procedure, shortened: as §1

[25] = test system: barnyardgrass (Echinochloa crusgalli); test: Test B flooded paddy test, visual plant response rating 0-100; conditions: 250 g ai/ha, Flood, applied to paddy water, evaluated after 13 days
Procedure, shortened: (§2)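 2-leaf plants; flood 3 cm over soil; compound dosed into paddy water; depth kept constant; greenhouse 13 d; visual scoring vs controls. Dash = no result.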

[26] = test system: ducksalad (Heteranthera limosa); test: as above; conditions: 250 g ai/ha, Flood, applied to paddy water, evaluated after 13 days
Procedure, shortened: as §2

rice (Oryza sativa) = test: as above; conditions: 250 g ai/ha, Flood, applied to paddy water, evaluated after 13 days
Procedure, shortened: as §2

[27] = test system: sedge, umbrella (small-flower umbrella sedge, Cyperus difformis); test: as above; conditions: 250 g ai/ha, Flood, applied to paddy water, evaluated after 13 days
Procedure, shortened: as §2

CCOC(=O)C1C=CC(NC(=O)C2(C)CN(c3cc(Cl)cc(Cl)c3)C(=O)O2)C1 (stereo not shown) [Compound 44]
70: Corn plant response rating (0 to 100 scale) (corn (Zea mays) [3]; 125 g ai/ha) | Soybean plant response rating (0 to 100 scale) (soybean (Glycine max) [10]; 500 g ai/ha) | Galium plant response rating (0 to 100 scale) ([15]; 125 g ai/ha) | Galium plant response rating (0 to 100 scale) ([15]; 500 g ai/ha) | Ragweed plant response rating (0 to 100 scale) ([21]; 125 g ai/ha)
80: Oat, Wild plant response rating (0 to 100 scale) ([6]; 125 g ai/ha) | Kochia plant response rating (0 to 100 scale) (kochia (Bassia scoparia) [18]; 125 g ai/ha) | Kochia plant response rating (0 to 100 scale) (kochia (Bassia scoparia) [18]; 500 g ai/ha) | Ragweed plant response rating (0 to 100 scale) ([21]; 500 g ai/ha) | Ryegrass, Italian plant response rating (0 to 100 scale) ([22]; 500 g ai/ha) | Soybean plant response rating (0 to 100 scale) (soybean (Glycine max) [23]; 500 g ai/ha) | Plant response rating, Barnyardgrass (0 to 100 scale, 0 is no effect and 100 is complete control) [25]
15: Plant response rating, Rice (0 to 100 scale, 0 is no effect and 100 is complete control) (rice (Oryza sativa))
20: Soybean plant response rating (0 to 100 scale) (soybean (Glycine max) [10]; 125 g ai/ha)
90: Blackgrass plant response rating (0 to 100 scale) ([2]; 125 g ai/ha) | Corn plant response rating (0 to 100 scale) (corn (Zea mays) [3]; 500 g ai/ha) | Foxtail, Green plant response rating (0 to 100 scale) ([4]; 125 g ai/ha) | Oat, Wild plant response rating (0 to 100 scale) ([6]; 500 g ai/ha) | Ryegrass, Italian plant response rating (0 to 100 scale) ([9]; 125 g ai/ha) | Wheat plant response rating (0 to 100 scale) ([11]; 125 g ai/ha) | Wheat plant response rating (0 to 100 scale) ([11]; 500 g ai/ha) | Foxtail, Green plant response rating (0 to 100 scale) ([16]; 125 g ai/ha) | Foxtail, Green plant response rating (0 to 100 scale) ([16]; 500 g ai/ha) | Horseweed plant response rating (0 to 100 scale) ([17]; 125 g ai/ha) | Horseweed plant response rating (0 to 100 scale) ([17]; 500 g ai/ha) | Oat, Wild plant response rating (0 to 100 scale) ([19]; 125 g ai/ha) | Oat, Wild plant response rating (0 to 100 scale) ([19]; 500 g ai/ha) | Ryegrass, Italian plant response rating (0 to 100 scale) ([22]; 125 g ai/ha) | Soybean plant response rating (0 to 100 scale) (soybean (Glycine max) [23]; 125 g ai/ha) | Wheat plant response rating (0 to 100 scale) ([24]; 125 g ai/ha) | Wheat plant response rating (0 to 100 scale) ([24]; 500 g ai/ha) | Plant response rating, Ducksalad (0 to 100 scale, 0 is no effect and 100 is complete control) [26]
95: Plant response rating, Sedge, Umbrella (0 to 100 scale, 0 is no effect and 100 is complete control) [27]
60: Ragweed plant response rating (0 to 100 scale) ([8]; 500 g ai/ha)
10: Ragweed plant response rating (0 to 100 scale) ([8]; 125 g ai/ha)
100: Barnyardgrass plant response rating (0 to 100 scale) ([1]; 125 g ai/ha) | Barnyardgrass plant response rating (0 to 100 scale) ([1]; 500 g ai/ha) | Blackgrass plant response rating (0 to 100 scale) ([2]; 500 g ai/ha) | Foxtail, Green plant response rating (0 to 100 scale) ([4]; 500 g ai/ha) | Kochia plant response rating (0 to 100 scale) (kochia (Bassia scoparia) [5]; 125 g ai/ha) | Kochia plant response rating (0 to 100 scale) (kochia (Bassia scoparia) [5]; 500 g ai/ha) | Amaranth, Palmer plant response rating (0 to 100 scale) ([7]; 125 g ai/ha) | Amaranth, Palmer plant response rating (0 to 100 scale) ([7]; 500 g ai/ha) | Ryegrass, Italian plant response rating (0 to 100 scale) ([9]; 500 g ai/ha) | Barnyardgrass plant response rating (0 to 100 scale) ([12]; 125 g ai/ha) | Barnyardgrass plant response rating (0 to 100 scale) ([12]; 500 g ai/ha) | Blackgrass plant response rating (0 to 100 scale) ([13]; 125 g ai/ha) | Blackgrass plant response rating (0 to 100 scale) ([13]; 500 g ai/ha) | Corn plant response rating (0 to 100 scale) (corn (Zea mays) [14]; 125 g ai/ha) | Corn plant response rating (0 to 100 scale) (corn (Zea mays) [14]; 500 g ai/ha) | Amaranth, Palmer / Pigweed, Palmer plant response rating (0 to 100 scale) ([20]; 125 g ai/ha) | Amaranth, Palmer / Pigweed, Palmer plant response rating (0 to 100 scale) ([20]; 500 g ai/ha)

Source: US20260285850A1, “SUBSTITUTED OXAZOLIDINONES AND IMIDAZOLINONES AS HERBICIDES” (FMC CORPORATION, priority 2023, published 2026)
